Results: US9169217B2, “Arylalkyl esters of 4-amino-6-(substituted phenyl)-picolinates and 6-amino-2-(substituted phenyl)-pyrimidinecarboxylates and their use as selective herbicides for crops” (Dow AgroSciences LLC, priority 2011, dated 2015)

Assays:
[1] = system: Echinochloa colonum (L.) LINK (junglerice); assay: Postemergence foliar-applied herbicidal activity in direct seeded rice (Example 16); type: in vivo; details: Echinochloa colona, post-emergence, 504 h, rice cropping systems, 8.75 g ae/ha, 21 DAA, may represent multiple trials, read-out: Visual Injury (%) ECHCO
Text: (§1) Seeds or nutlets of the desired test plant species were planted in a soil matrix prepared by mixing a loam soil (43 percent silt, 19 percent clay, and 38 percent sand, with a pH of about 8.1 and an organic matter content of about 1.5 percent) and river sand in an 80 to 20 ratio. The soil matrix was contained in plastic pots with a surface area of 139.7 cm^2. When required to ensure good germination and healthy plants, a fungicide treatment and/or other chemical or physical treatment was applied. The plants were grown for 10-17 d in a greenhouse with an approximate 14-h photoperiod which was maintained at about 29° C. during the day and 26° C. during the night. Nutrients and water were added on a regular basis and supplemental lighting was provided with overhead metal halide 1000-Watt lamps as necessary. The plants were employed for testing when they reached the second or third true leaf stage.
(§2) Treatments consisted of esters of compounds 1-4, 6-8, 10, 11, 13-16, 20-31, 35, 38, 41 and 42 and A-E. Compound A is methyl 4-amino-3-chloro-6-(4-chloro-3-ethoxy-2-fluorophenyl)-5-fluoropicolinate; compound B is methyl 4-amino-3-chloro-6-(4-cyclopropylphenyl)-5-fluoropicolinate; compound C is methyl 4-amino-3-chloro-6-(2,4-dichloro-3-methoxyphenyl)picolinate; compound D is methyl 6-amino-2-(4-chloro-2-fluoro-3-methoxyphenyl)-5-vinylpyrimidine-4-carboxylate; and compound E is methyl 4-amino-3-chloro-6-(4-chloro-2-fluoro-3-methoxyphenyl)-5-fluoropicolinate. Weighed amounts of technical grade compounds were placed in 25 mL glass vials and dissolved in a volume of 97:3 v/v acetone-DMSO to obtain 12× stock solutions. […] The concentrated stock solutions were added to the spray solutions so that the final acetone and DMSO concentrations were 16.2% and 0.5%, respectively. Spray solutions were diluted to the appropriate final concentrations with the addition of 10 mL of an aqueous mixture of 1.5% (v/v) Agri-dex crop oil concentrate. Generally, multiple concentrations of spray solutions were formulated and tested utilizing the same stock solution. The final spray solutions contained 1.25% (v/v) Agri-dex crop oil concentrate. Compound requirements are based upon a 12 mL application volume at a rate of 187 L/ha. Spray solutions were applied to the plant material with an overhead Mandel track sprayer equipped with 8002E nozzles calibrated to deliver 187 L/ha over an application area of 0.503 square meters (m^2) at a spray height of 18 inches (43 cm) above average plant canopy height. Control plants were sprayed in the same manner with the solvent blank.
(§3) The treated plants and control plants were placed in a greenhouse as described above and watered by sub-irrigation to prevent wash-off of the test compounds. After 3 weeks, the condition of the test plants, compared with that of the untreated plants, was determined visually and scored on a scale of 0 to 100 percent where 0 corresponds to no injury and 100 corresponds to complete kill.
(§4) By applying the well-accepted probit analysis as described by J. Berkson in Journal of the American Statistical […], 48, 565 (1953) and by D. Finney in “Probit Analysis” Cambridge University Press (1952), the data gathered can be used to calculate GR50 and GR80 values, which are defined as growth reduction factors that correspond to the effective dose of herbicide required to kill or control 50 percent or 80 percent, respectively, of a target plant.

[2] = system: Echinochloa crus-galli (L.) P.BEAUV. (barnyardgrass); assay: as above; type: in vivo; details: rice cropping systems, 8.75 g ae/ha, 21 DAA, may represent multiple trials
Text: as §1, §2, §3, §4

[3] = system: Echinochloa crus-galli (L.) P.BEAUV. (barnyardgrass); assay: In-water applied herbicidal activity in transplanted paddy rice (Example 17); type: in vivo; details: Echinochloa crus-galli, 504 h, rice cropping systems, in-water applied (paddy), 21 DAA, may represent multiple trials, read-out: Visual Injury (%) ECHCG; for pest or weed control at 35 g/ha: 35 g ae/ha; for pest or weed control at 17.5 g/ha: 17.5 g ae/ha
Protocol: (§5) Weed seeds or nutlets of the desired test plant species were planted in puddled soil (mud) prepared by mixing a non-sterilized mineral soil (28 percent silt, 18 percent clay, and 54 percent sand, with a pH of about 7.3 to 7.8 and an organic matter content of about 1.0 percent) and water at a ratio of 100 kilograms (kg) of soil to 19 liters (L) of water. The prepared mud was dispensed in 250 mL aliquots into 480 mL non-perforated plastic pots with a surface area of 91.6 cm^2 leaving a headspace of 3 cm in each pot. Rice seeds were planted in Sun Gro MetroMix 306 planting mixture, which typically has a pH of 6.0 to 6.8 and an organic matter content of about 30 percent, in plastic plug trays. Seedlings at the second or third leaf stage of growth were transplanted into 650 mL of mud contained in 960 mL non-perforated plastic pots with a surface area of 91.6 cm^2 four days prior to herbicide application. The paddy was created by filling the 3 cm headspace of the pots with water. When required to ensure good germination and healthy plants, a fungicide treatment and/or other chemical or physical treatment was applied. The plants were grown for 4-14 d in a greenhouse with an approximate 14-h photoperiod which was maintained at about 29° C. during the day and 26° C. during the night. Nutrients were added as Osmocote (17:6:10, Nitrogen:Phosphorus:Potassium (N:P:K)+minor nutrients) at 2 grams (g) per cup. Water was added on a regular basis to maintain the paddy flood, and supplemental lighting was provided with overhead metal halide 1000-Watt lamps as necessary. The plants were employed for testing when they reached the second or third true leaf stage.
(§6) Treatments consisted of esters of compounds 1-4, 6-33, 35-39, 41 and 42 and A-G. Compound A is methyl 4-amino-3-chloro-6-(4-chloro-3-ethoxy-2-fluorophenyl)-5-fluoropicolinate; compound B is methyl 4-amino-3-chloro-6-(4-cyclopropylphenyl)-5-fluoropicolinate; compound C is methyl 4-amino-3-chloro-6-(2,4-dichloro-3-methoxyphenyl)picolinate; compound D is methyl 6-amino-2-(4-chloro-2-fluoro-3-methoxyphenyl)-5-vinylpyrimidine-4-carboxylate; compound E is methyl 4-amino-3-chloro-6-(4-chloro-2-fluoro-3-methoxyphenyl)-5-fluoropicolinate; compound F is methyl 6-amino-2-(4-chloro-2-fluoro-3-methoxyphenyl)-5-methoxypyrimidine-4-carboxylate; and compound G is methyl 4-amino-3-chloro-6-(4-chloro-2-fluoro-3-methoxyphenyl)picolinate. Weighed amounts of technical grade compounds were placed in individual 120 mL glass vials and were dissolved in 20 mL of acetone to obtain concentrated stock solutions. […] The concentrated stock solutions obtained were diluted with 20 mL of an aqueous mixture containing 2.5% Agri-dex crop oil concentrate (v/v). The final application solutions contained 1.25% (v/v) Agri-dex crop oil concentrate. Generally, multiple concentrations were tested utilizing the same stock solution. Applications were made by injecting an appropriate amount of the application solution into the aqueous layer of the paddy. Control plants were treated in the same manner with the solvent blank.
as §3, with “water was added as needed” for “watered by sub-irrigation”, “maintain a paddy flood.” for “prevent wash-off of the test compounds.”, “weeks” for “weeks,”
as §4

[4] = system: Scirpus juncoides ROXB. (Japanese bulrush); assay: Postemergence foliar-applied herbicidal activity in direct seeded rice (Example 16); type: in vivo; details: Schoenoplectiella juncoides, post-emergence, 504 h; rice cropping systems, foliar-applied, 8.75 g ae/ha, 21 DAA; may represent multiple trials; read-out: Visual Injury (%) SCPJU
Text: as §1, §2, §3, §4

[5] = system: Cyperus difformis L. (small-flower flatsedge); assay: as above; type: in vivo; details: post-emergence, 504 h, rice cropping systems, foliar-applied, 8.75 g ae/ha, 21 DAA, may represent multiple trials, read-out: Visual Injury (%) CYPDI
Text: as §1, §2, §3, §4

[6] = system: Scirpus juncoides ROXB. (Japanese bulrush); assay: In-water applied herbicidal activity in transplanted paddy rice (Example 17); type: in vivo; details: Schoenoplectiella juncoides, 504 h; rice cropping systems, in-water applied (paddy), 17.5 g ae/ha, 21 DAA; may represent multiple trials; read-out: Visual Injury (%) SCPJU
Protocol: as §5, §6
as §3, with “water was added as needed” for “watered by sub-irrigation”, “maintain a paddy flood.” for “prevent wash-off of the test compounds.”, “weeks” for “weeks,”
as §4

[7] = system: Fimbristylis miliacea (L.) VAHL (globe fringerush); assay: as above; type: in vivo; details: rice cropping systems, in-water applied (paddy), 35 g ae/ha, 21 DAA; may represent multiple trials
Protocol: as §5, §6
as §3, with “water was added as needed” for “watered by sub-irrigation”, “maintain a paddy flood.” for “prevent wash-off of the test compounds.”, “weeks” for “weeks,”
as §4

SMILES | pest or weed control at 8.75 g/ha [1] | Visual Injury (%) ECHCG [2] | pest or weed control at 35 g/ha [3] | melting point | pest or weed control at 8.75 g/ha [4] | pest or weed control at 8.75 g/ha [5] | pest or weed control at 17.5 g/ha [6] | pest or weed control at 17.5 g/ha [3] | Visual Injury (%) FIMMI [7]
C=Cc1c(N)nc(-c2ccc(Cl)c(OC)c2F)nc1C(=O)OCc1ccccc1 [Compound 35, benzyl 6-amino-2-(4-chloro-2-fluoro-3-methoxyphenyl)-5-vinylpyrimidine-4-carboxylate] | 90% | 95% | 76% | 119 to 121 °C |  |  |  |  | 
COc1c(Cl)ccc(-c2nc(C(=O)OCCc3ccc(Cl)cc3)c(Cl)c(N)c2F)c1F [Compound 22] |  |  |  | 107 to 108 °C | 90% | 100% | 40% | 0% | 
COc1c(Cl)ccc(-c2nc(C(=O)OCc3ccc(SC)cc3)c(Cl)c(N)c2F)c1F [Compound 31] |  |  |  | 145 °C | 100% | 100% | 85% | 50% | 
C=Cc1c(N)nc(-c2ccc(Cl)c(OC)c2F)nc1C(=O)OC [D, methyl 6-amino-2-(4-chloro-2-fluoro-3-methoxyphenyl)-5-vinylpyrimidine-4-carboxylate, reference compound] | 79% | 87% | 54% |  |  |  |  |  | 
COC(=O)c1cccc(COC(=O)c2nc(-c3ccc(Cl)c(OC)c3F)c(F)c(N)c2Cl)c1 [Compound 29] |  |  |  | 144 to 145 °C | 100% | 100% | 60% | 10% | 
COc1c(Cl)ccc(-c2nc(C(=O)OCc3ccc(Cl)cc3)c(Cl)c(N)c2F)c1F [Compound 2, 4-chlorobenzyl 4-amino-3-chloro-6-(4-chloro-2-fluoro-3-methoxyphenyl)-5-fluoropicolinate] |  |  |  | 143 °C | 100% | 100% | 99% | 97% | 
COc1c(Cl)ccc(-c2nc(C(=O)OCc3ccc(Cl)cc3C)c(Cl)c(N)c2F)c1F [Compound 30] |  |  |  | 167 to 168 °C | 0% | 99% | 85% | 50% | 
COc1ccc(COC(=O)c2nc(-c3ccc(Cl)c(OC)c3F)cc(N)c2Cl)cc1 [Compound 36, 4-methoxybenzyl 4-amino-3-chloro-6-(4-chloro-2-fluoro-3-methoxyphenyl)picolinate] |  |  |  |  |  |  |  |  | 100%
COc1c(Cl)ccc(-c2nc(C(=O)OCc3cccc(F)c3)c(Cl)c(N)c2F)c1F [Compound 23] |  |  |  | 160 to 161 °C | 100% | 100% | 95% | 60% | 
COc1c(Cl)ccc(-c2nc(C(=O)OCc3ccccc3C(F)(F)F)c(Cl)c(N)c2F)c1F [Compound 26] |  |  |  | 133 to 134 °C | 100% | 100% | 100% | 20% | 
COc1cccc(COC(=O)c2nc(-c3ccc(Cl)c(OC)c3F)c(F)c(N)c2Cl)c1 [Compound 13] |  |  |  | 164 to 165 °C | 80% | 95% | 98% | 98% | 
COc1c(Cl)ccc(-c2nc(C(=O)OCc3ccc4ccccc4c3)c(Cl)c(N)c2F)c1F [Compound 28] |  |  |  | 142 to 143 °C | 100% | 100% | 50% | 10% | 
COc1c(Cl)ccc(-c2nc(C(=O)OCc3ccccc3F)c(Cl)c(N)c2F)c1F [Compound 25] |  |  |  | 169 °C | 100% | 100% | 90% | 10% | 
